Data on 21 compounds can be found in US9498483B2, “2,3,5-trisubstituted thiophene compounds and uses thereof” (priority 2010, dated 2016).

For assay [1], the system named is HCV replicon I389luc-ubi-neo/NS3-3′/ET in ET (Huh-lucubineo-ET) cells. Description: Replicon assay (Biological Example 2), luciferase readout. It counts as cell-based. Particulars: Hepatitis C virus. As to the method:
A cell line, ET (Huh-lucubineo-ET) was used for screening of compounds for inhibiting HCV RNA dependent RNA polymerase. The ET cell line was stably transfected with RNA transcripts harboring a I389luc-ubi-neo/NS3-3′/ET; replicon with firefly luciferase-ubiquitin-neomycin phosphotransferase fusion protein and EMCV-IRES driven NS3-5B polyprotein containing the cell culture adaptive mutations (E1202G; T12801; K1846T) (Krieger at al, 2001 and unpublished). The ET cells were grown in DMEM (Dulbeco's Modified Eagle's Medium), supplemented with 10% fetal calf serum, 2 mM Glutamine, Penicillin (100 IU/mL)/Streptomycin (100 μg/mL), 1× nonessential amino acids, and 250 μg/mL G418 (“Geneticin”). Reagents were all available through Life Technologies (Bethesda, Md.). The cells were plated at 0.5-1.0×10^4 cells/well in the 96 well plates and incubated for 24 hrs before adding test compound. The compounds were added to the cells to achieve a final concentration of 0.1 nM to 50 μM and a final DMSO (dimethylsulfoxide) concentration of 0.5%. Luciferase activity was measured 48 hours later by adding a lysis buffer and the substrate (Catalog number Glo-lysis buffer E2661 and Bright-Glo luciferase system E2620 Promega, Madison, Wis.). Cells should not be too confluent during the assay. Percent inhibition of replication data was plotted relative to no compound control. To determine the EC50 (effective concentration at which 50% of the maximum inhibition was observed), a 10 point, 3-fold serial dilution for each compound was used, which spans a concentration range of […]. EC50 values were calculated by fitting % inhibition at each concentration to the following equation: % inhibition=100%/[(EC50/[I])^b+1] where b was Hill's coefficient.
In other aspects the EC50 was equal to or less than 10 μM. In still other aspects the EC50 was equal to or less than 1 μM.
(In general: Replicon systems follow genome replication, usually without infectious particles.)

The target in assay [2] is T1, HCV polymerase (Hepatitis C virus genotype 1b, UniProt Q9WMX2).
T1 construct: (His)6 (C); made in house; host or cells: XL-1 cells (E. coli, by own knowledge)
As to the kind of experiment: Polymerase assay of Biological Example 1 (IC50 values of Table 3). It counts as biochemical. The note with it: IC50 values of Table 3, polymerase assay of Biological Example 1; read-out: NS5B-enzyme3. From the text: A number of assays have been published to assess these activities. A general method that assesses the gross increase of HCV virus in culture was disclosed in U.S. Pat. No. 5,738,985 to Miles et al. In vitro assays have been reported in Ferrari et al. Jnl. of Vir., 73:1649-1654, 1999; Ishii et al., Hepatology, 29:1227-1235, 1999; Lohmann et al., Jnl of Bio. Chem., 274:10807-10815, 1999; and Yamashita et al., Jnl. of Bio. Chem., 273:15479-15486, 1998.
WO 97/12033, filed on Sep. 27, 1996, by Emory University, listing C. Hagedorn and A. Reinoldus as inventors, which claims priority to U.S. Provisional Patent Application Ser. No. 60/004,383, filed on September 1995, described an HCV polymerase assay that can be used to evaluate the activity of the of the compounds described herein. Another HCV polymerase assay has been reported by Bartholomeusz, et al., Hepatitis C Virus (HCV) RNA polymerase assay using cloned HCV non-structural proteins; Antiviral Therapy 1996:1 (Supp 4) 18-24.

Setting [3] is: ET cells, luciferase activity 48 hours after compound.

Turning to `O=C(O)c1sc(-c2ccccc2)cc1N1C(=O)CN(S(=O)(=O)c2ccc(N(CCO)CCO)nc2)CC1C1CCCCC1` (stereo not shown) [Compound 83, 3-(4-{6-[Bis-(2-hydroxy-ethyl)-amino]-pyridine-3-sulfonyl}-2-cyclohexyl-6-oxo-piperazin-1-yl)-5-phenyl-thiophene-2-carboxylic acid], the IC50 was 100 to 5000 nM in assay [1] (between 100 nM and 5.0 uM); 3 nM in assay [2].

With `CC1(C)CCN(c2ccc(S(=O)(=O)N3CC(=O)N(c4cc(-c5ccccc5)sc4C(=O)O)[C@H](C4CCCCC4)C3)cn2)C1` [Compound 219, 3-{(R)-2-Cyclohexyl-4-[6-(3,3-dimethyl-pyrrolidin-1-yl)-pyridine-3-sulfonyl]-6-oxo-piperazin-1-yl}-5-phenyl-thiophene-2-carboxylic acid], the IC50 in assay [1] (setting [3]) was not above 100 nM.

The compound `C[C@@H]1CCCN1c1ccc(S(=O)(=O)N2CC(=O)N(c3cc(-c4ccc(Cl)cc4)sc3C(=O)O)[C@H](C3CCCCC3)C2)cn1` [Compound 201, 5-(4-Chloro-phenyl)-3-{(R)-2-cyc!ohexyl-4-[6-((R)-2-methyl-pyrrolidin-1-yl)-pyridine-3-sulfonyl]-6-oxo-piperazin-1-yl}-thiophene-2-carboxylic acid] displayed an IC50 in assay [1] (setting [3]) not above 100 nM.

`O=C(O)c1sc(-c2ccccc2)cc1N1C(=O)CN(CCc2ccccc2)C[C@H]1C1CCCCC1` [Compound 268, 3-((R)-2-Cyclohexyl-6-oxo-4-phenethyl-piperazin-1-yl)-5-phenyl-thiophene-2-carboxylic acid]: the IC50 in assay [2] is 620 nM.

`Cc1oncc1S(=O)(=O)N1CC(=O)N(c2cc(C#CC(C)(C)C)sc2C(=O)O)[C@H](C2CCCCC2)C1` [Compound 240, 3-[(R)-2-Cyclohexyl-4-(5-methyl-isoxazole-4-sulfonyl)-6-oxo-piperazin-1-yl]-5-(3,3-dimethyl-but-1-ynyl)-thiophene-2-carboxylic acid] registered an IC50 in assay [1] (setting [3]) not above 100 nM.

In assay [1] (setting [3]), `O=C(O)c1sc(-c2ccc(F)cc2)cc1N1C(=O)CN(S(=O)(=O)c2ccc(N3CC4CC3CO4)nc2)C[C@H]1C1CCCCC1` (stereo partly drawn) [Compound 228, 3-{(R)-2-Cyclohexyl-4-[6-(2-oxa-5-aza-bicyclo[2.2.1]hept-5-yl)-pyridine-3-sulfonyl]-6-oxo-piperazin-1-yl}-5-(4-fluoro-phenyl)-thiophene-2-carboxylic acid] displayed an IC50 not above 100 nM.

The compound `O=C(O)c1sc(-c2ccc(F)cc2)cc1N1C(=O)CN(S(=O)(=O)c2ccc(N3CCCCC3)nc2)C[C@H]1C1CCCCC1` [Compound 235, 3-[(R)-2-Cyclohexyl-6-oxo-4-(3,4,5,6-tetrahydro-2H-[1,2′]bipyridinyl-5′-sulfonyl)-piperazin-1-yl]-5-(4-fluoro-phenyl)-thiophene-2-carboxylic acid] came in with an IC50 in assay [1] (setting [3]) not above 100 nM.

The compound `CN1CCN(c2ccc(-c3ccc(S(=O)(=O)N4CC(=O)N(c5cc(-c6ccccc6)sc5C(=O)O)[C@H](C5CCCCC5)C4)cn3)cn2)CC1` [Compound 224, 3-{(R)-2-Cyclohexyl-4-[6′-(4-methyl-piperazin-1-yl)-[2,3′]bipyridinyl-5-sulfonyl]-6-oxo-piperazin-1-yl}-5-phenyl-thiophene-2-carboxylic acid] returned an IC50 in assay [1] (setting [3]) not above 100 nM.

On to `O=C(O)c1sc(-c2ccccc2)cc1N1C(=O)CN(Cc2cccc(F)c2N2CCOCC2)C[C@H]1C1CCCCC1` [Compound 266, 3-[(R)-2-Cyclohexyl-4-(3-fluoro-2-morpholin-4-yl-benzyl)-6-oxo-piperazin-1-yl]-5-phenyl-thiophene-2-carboxylic acid], for which the IC50 in assay [2] is 142 nM.

Turning to `CC1CCN(c2ccc(S(=O)(=O)N3CC(=O)N(c4cc(-c5ccccc5)sc4C(=O)O)C(C4CCCCC4)C3)cn2)CC1` (stereo not shown) [Compound 96, 3-[2-Cyclohexyl-4-(4-methyl-3,4,5,6-tetrahydro-2H-[1,2′]bipyridinyl-5′-sulfonyl)-6-oxo-piperazin-1-yl]-5-phenyl-thiophene-2-carboxylic acid], in assay [1] (setting [3]), the IC50 was not above 100 nM.

As to `O=C(O)c1sc(-c2ccccc2)cc1N1C(=O)CN(CC2CCCCC2)C[C@H]1C1CCCCC1` [Compound 265, 3-((R)-2-Cyclohexyl-4-cyclohexylmethyl-6-oxo-piperazin-1-yl)-5-phenyl-thiophene-2-carboxylic acid], the IC50 in assay [2] worked out at 601 nM.

Turning to `O=C(O)c1sc(-c2ccccc2)cc1N1C(=O)CN(Cc2cccc(-n3cccc3)c2)C[C@H]1C1CCCCC1` [Compound 261, 3-[(R)-2-Cyclohexyl-6-oxo-4-(3-pyrrol-1-yl-benzyl)-piperazin-1-yl]-5-phenyl-thiophene-2-carboxylic acid], the IC50 in assay [2] was found to be 199 nM.

For the compound “3-[(2S,5R)-5-Cyclohexyl-2-(2,3-dihydroxy-propyl)-2-methyl-3-oxo-morpholin-4-yl]-5-(3,3-dimethyl-but-1-ynyl)-thiophene-2-carboxylic acid [Compound 326]”, the IC50 in assay [2] worked out at 882 nM.

For the compound `Cc1ccccc1CN1CC(=O)N(c2cc(-c3ccccc3)sc2C(=O)O)[C@H](C2CCCCC2)C1` [Compound 269, 3-[(R)-2-Cyclohexyl-4-(2-methyl-benzyl)-6-oxo-piperazin-1-yl]-5-phenyl-thiophene-2-carboxylic acid], the IC50 in assay [2] came out at 330 nM.

Take `CC(C)(C)C#Cc1cc(N2C(=O)C(CCCS(C)(=O)=O)OC[C@H]2C2CCCCC2)c(C(=O)O)s1` (stereo partly drawn) [Compound 306, 3-[(R)-5-Cyclohexyl-2-(3-methanesulfonyl-propyl)-3-oxo-morpholin-4-yl]-5-(3,3-dimethyl-but-1-ynyl)-thiophene-2-carboxylic acid]: the IC50 in assay [2] is 5.3 nM.

In the case of `CN(C)c1ccc(CN2CC(=O)N(c3cc(-c4ccccc4)sc3C(=O)O)[C@H](C3CCCCC3)C2)cc1` [Compound 270, 3-[(R)-2-Cyclohexyl-4-(4-dimethylamino-benzyl)-6-oxo-piperazin-1-yl]-5-phenyl-thiophene-2-carboxylic acid], the IC50 in assay [2] amounted to 19 nM.

`CC(C)(C)OC(=O)N1CC(=O)N(c2cc(-c3ccccc3)sc2C(=O)O)[C@H](C2CCCCC2)C1` [Compound 14, (R)-4-(2-Carboxy-5-phenyl-thiophen-3-yl)-3-cyclohexyl-5-oxo-piperazine-1-carboxylic acid tert-butyl ester]: in assay [2], the IC50 was 3650 nM.

As for `Cc1cccc(CN2CC(=O)N(c3cc(-c4ccccc4)sc3C(=O)O)[C@H](C3CCCCC3)C2)c1` [Compound 263, 3-[(R)-2-Cyclohexyl-4-(3-methyl-benzyl)-6-oxo-piperazin-1-yl]-5-phenyl-thiophene-2-carboxylic acid], the IC50 in assay [2] was 108 nM.

In the case of `Cc1cccc(C)c1CN1CC(=O)N(c2cc(-c3ccccc3)sc2C(=O)O)[C@H](C2CCCCC2)C1` [Compound 264, 3-[(R)-2-Cyclohexyl-4-(2,6-dimethyl-benzyl)-6-oxo-piperazin-1-yl]-5-phenyl-thiophene-2-carboxylic acid], in assay [2], the IC50 is 538 nM.

Consider `O=C(O)c1sc(-c2ccccc2)cc1N1C(=O)CN(S(=O)(=O)c2ccc(-c3ccncc3)nc2)C[C@H]1C1CCCCC1` [Compound 207], for which, in assay [1] (between 100 nM and 5.0 uM), the IC50 is 100 to 5000 nM.

Regarding `O=C(O)c1sc(-c2ccccc2)cc1N1C(=O)CC[C@H]1C1CCCCC1` [Compound 6, 3-((S)-2-Cyclohexyl-5-oxo-pyrrolidin-1-yl)-5-phenyl-thiophene-2-carboxylic acid], the IC50 in assay [1] (between 100 nM and 5.0 uM) was 100 to 5000 nM.
